Converted amounts (≈) assume the structure as drawn.
Legend:
[1] = in vitro; conditions: CD-1, mouse, liver microsomes
[2] = physchem; conditions: buffer, pH 7.4

Row | SMILES | half-life at 1 µM [1] [min] | solubility at 1.5 h, 200 µM [2] [µM]
1 | O=C(Nc1ccc(C(=O)CCl)cc1)Nc1ccc(-c2nc(N3CCOCC3)c3ncccc3n2)cc1 | > 60 | < 2
2 | CCOC(=O)c1ccc(NC(=O)Nc2ccc(-c3nc(N4CCOCC4)c4cccnc4n3)cc2)cc1 | > 60 | < 2
3 | O=C(Nc1ccc(-c2nc(N3CCOCC3)c3cccnc3n2)cc1)Nc1cccc(CO)c1 | 30 | 21.8 (≈ 9.95 µg/mL)
4 | O=C(Nc1ccccc1)Nc1ccc(-c2nc(N3CCOCC3)c3ncccc3n2)cc1 | 22.3 | < 2
5 | O=C(Nc1ccc(CCO)cc1)Nc1ccc(-c2nc(N3CCOCC3)c3ncccc3n2)cc1 | > 60 | < 2
6 | Oc1cccc(-c2nc(N3CCOCC3)c3oc4ncccc4c3n2)c1 [PI-103] | 7.1 | 3.4 (≈ 1.18 µg/mL)

The next lines start with the values.

Row | half-life at 1 µM [1] [min] | solubility at 1.5 h, 200 µM [2] [µM] | SMILES
7 | > 60 | 11.4 (≈ 5.5 µg/mL) | CCC(=O)c1ccc(NC(=O)Nc2ccc(-c3nc(N4CCOCC4)c4cccnc4n3)cc2)cc1
8 | 59.6 | 4.2 (≈ 2.52 µg/mL) | O=C(Nc1ccc(-c2nc(N3CCOCC3)c3cccnc3n2)cc1)Nc1ccc(S(=O)(=O)Nc2ccc(F)cc2)cc1
9 | > 60 | < 2 | O=C(Nc1ccc(-c2nc(N3CCOCC3)c3ncccc3n2)cc1)Nc1ccc(S(=O)(=O)Nc2ccc(F)cc2)cc1
10 | 59 | < 2 | CC(=O)c1ccc(NC(=O)Nc2ccc(-c3nc(N4CCOCC4)c4cccnc4n3)cc2)cc1
11 | > 60 | < 2 | O=C(Nc1ccc(-c2nc(N3CCOCC3)c3ncccc3n2)cc1)Nc1ccc(S(=O)(=O)Nc2ccc(F)cc2F)cc1
12 | 26.9 | < 2 | O=C(Nc1ccc(-c2nc(N3CCOCC3)c3cccnc3n2)cc1)Nc1ccc(S(=O)(=O)Nc2ccccc2)cc1
13 | 60 | < 2 | O=C(Nc1ccc(-c2nc(N3CCOCC3)c3cccnc3n2)cc1)Nc1ccc(S(=O)(=O)Nc2ccc(F)cc2F)cc1
14 | 16.6 | < 2 | O=C(Nc1ccc(-c2nc(N3CCOCC3)c3ncccc3n2)cc1)Nc1ccc(S(=O)(=O)Nc2ccccc2)cc1
